Test results reported in EP0683169A1, “8-Amino-pyrido 1,2,3-de 1,3,4 benzoxadiazine derivatives, and antibacterial agents containing them” (BAYER AG, priority 1994, dated 1995).
≈ marks a conversion by molar mass, not a printed value.

Key:
Assay in all cases: MIC (MHK) by agar serial dilution on Iso-Sensitest agar
Type in all cases: cell-based
[1] = test system: Micrococcus luteus 9341; settings: strain 9341, ca. 10⁴ colony-forming particles per spot, 37°C, ca. 20 h, read-out: MHK-Werte
Description: (§1) Die minimalen Hemmkonzentrationen (MHK) der erfindungsgemäßen Verbindungen wurden per Reihenverdünnungsverfahren auf Iso-Sensitest Agar (Oxoid) bestimmt. Für jede Prüfsubstanz wurde eine Reihe von Agarplatten hergestellt, die bei jeweils doppelter Verdünnung abfallende Konzentrationen des Wirkstoffs enthielten. Die Agarplatten wurden mit einem Multipoint-Inokulator (Denley) beimpft. Zum Beimpfen wurden Übernachtkulturen der Erreger verwandt, die zuvor so verdünnt wurden, daß jeder Impfpunkt ca. 10⁴ koloniebildende Partikel enthielt. Die beimpften Agarplatten wurden bei 37°C bebrütet, und das Keimwachstum wurde nach ca. 20 Stunden abgelesen. Der MHK-Wert (µg/ml) gibt die niedrigste Wirkstoffkonzentration an, bei der mit bloßem Auge kein Wachstum zu erkennen war.
(§2) In der nachstehenden Tabelle sind die MHK-Werte einiger der erfindungsgemäßen Verbindungen aufgeführt. Tabelle

[2] = test system: E. coli ATCC 25922; settings: Escherichia coli, ATCC25922, strain ATCC 25922, ca. 10⁴ colony-forming particles per spot, 37°C, ca. 20 h, read-out: MHK-Werte
Description: as §1, §2

[3] = test system: E. coli Neumann; settings: Escherichia coli, strain Neumann, ca. 10⁴ colony-forming particles per spot, 37°C, ca. 20 h, read-out: MHK-Werte
Description: as §1, §2

[4] = test system: Klebsiella pneumoniae 8085; settings: strain 8085, ca. 10⁴ colony-forming particles per spot, 37°C, ca. 20 h, read-out: MHK-Werte
Description: as §1, §2

[5] = test system: Acinetobacter 14068; settings: strain 14068, ca. 10⁴ colony-forming particles per spot, 37°C, ca. 20 h, read-out: MHK-Werte
Description: as §1, §2

MIC [1] | MIC [2] | MIC [3] | MIC [4] | MIC [5] | SMILES
0.015 µg/mL (≈ 0.0397 µM) | 0.015 µg/mL (≈ 0.0397 µM) | 0.015 µg/mL (≈ 0.0397 µM) | 0.06 µg/mL (≈ 0.159 µM) | 0.015 µg/mL (≈ 0.0397 µM) | CN1CCN(c2c(F)c(N)c3c(=O)c(C(=O)O)cn4c3c2OCN4C)CC1 [Beispiel 2, 8-Amino-9-fluor-3-methyl-10-(4-methyl-1-piperazinyl)-7-oxo-2,3-dihydro-7H-pyrido[1,2,3-d,e][1,3,4]benzoxadiazin-6-carbonsäure]
0.015 µg/mL (≈ 0.0397 µM) | 0.06 µg/mL (≈ 0.159 µM) | 0.06 µg/mL (≈ 0.159 µM) | 0.12 µg/mL (≈ 0.318 µM) | 0.015 µg/mL (≈ 0.0397 µM) | CC1CN(c2c(F)c(N)c3c(=O)c(C(=O)O)cn4c3c2OCN4C)CCN1 (centres unmarked) [Beispiel 3, 8-Amino-9-fluor-3-methyl-10-(3-methyl-1-piperazinyl)-7-oxo-2,3-dihydro-7H-pyrido[1,2,3-d,e][1,3,4]benzoxadiazin-6-carbonsäure]
0.015 µg/mL (≈ 0.0412 µM) | 0.03 µg/mL (≈ 0.0823 µM) | 0.015 µg/mL (≈ 0.0412 µM) | 0.25 µg/mL (≈ 0.686 µM) | 0.015 µg/mL (≈ 0.0412 µM) | CN1COc2c(N3CCC(O)C3)c(F)c(N)c3c(=O)c(C(=O)O)cn1c23 (centres unmarked) [Beispiel 5, 8-Amino-9-fluor-3-methyl-10-(3-hydroxy-1-pyrrolidinyl)-7-oxo-2,3-dihydro-7H-pyrido[1,2,3-d,e][1,3,4]benzoxadiazin-6-carbonsäure]
0.015 µg/mL (≈ 0.0385 µM) | 0.06 µg/mL (≈ 0.154 µM) | 0.06 µg/mL (≈ 0.154 µM) | 0.12 µg/mL (≈ 0.308 µM) | 0.015 µg/mL (≈ 0.0385 µM) | CN1C[C@@H]2C[C@H]1CN2c1c(F)c(N)c2c(=O)c(C(=O)O)cn3c2c1OCN3C [Beispiel 10]
